One assay has as its system PD-1/PD-L1 interaction. In words: PD-1/PD-L1 NFAT Reporter Assay (co-culture of Jurkat T cells overexpressing PD-1 and PD-L1 expressing CHO cells). In kind it is cell-based. To be noted: Homo sapiens, Jurkat, 6 h, co-culture 6 hrs at 37° C., NFAT-mediated luciferase activity. The method, then: Blocking the PD-1/PD-L1 interaction will release the inhibitory signal and results in TCR signaling and NFAT-mediated luciferase activity.
CHO cells expressing surface-bound anti-CD3 antibodies and PD-L1 were first seeded overnight and treated with the compounds. Jurkat cells overexpressing PD-1 and a luciferase construct under NFAT promoter were then immediately seeded on the monolayer of CHO cells. The co-culture was then incubated for 6 hrs at 37° C. Luciferase activity was assessed by adding the ONE-Glo reagent and measuring luminescence with a plate reader. EC50 values were determined from the fit of the dose-response curves.
(Reporter assays use an easily measured gene product as a stand-in for the process of interest.)
In general, EC50 refers to the concentration giving half of the maximal effect. A high value points to a need for much substance. Turning to `COc1nc(-c2cccc(-c3cccc(NC(=O)c4nn(C)c(=O)n(C)c4=O)c3Cl)c2Cl)cc2c1[C@H](N1CC3(CN(C(C)=O)C3)C1)CC2` (single isomer, unassigned) [Compound A-71], the EC50 is not above 10 nM. Still for that read-out and setting: the result for `COc1nc(-c2cccc(-c3cccc(NC(=O)c4cn(C)c(=O)n(C)c4=O)c3Cl)c2C#N)cc2c1[C@@H](N[C@@H]1CCOC[C@@H]1O)CC2` (single isomer, unassigned) [Compound A-73] reads 10 to 100 nM; that for `COc1nc(-c2cccc(-c3cccc(NC(=O)c4nn(C)c(=O)n(C)c4=O)c3Cl)c2Cl)cc2c1[C@@H](N[C@@H]1CCOC[C@@H]1O)CC2` (single isomer, unassigned) [Compound A-76], not above 10 nM. Same read-out and setting: the result for `COc1nc(-c2cccc(-c3cccc(NC(=O)c4nn(C)c(=O)n(C)c4=O)c3C)c2Cl)cc2c1[C@@H](N[C@@H]1CCOC[C@@H]1O)CC2` (single isomer, unassigned) [Compound A-77] reads not above 10 nM; that for `COc1nc(-c2cccc(-c3cccc(NC(=O)c4cn(C)c(=O)n(C)c4=O)c3C)c2Cl)cc2c1[C@@H](NC[C@@H]1CCC(=O)N1)C(C)(C)C2` (single isomer, unassigned) [Compound A-123], more than 5000 nM. Still for that read-out and setting: the figure for `COc1nc(-c2cccc(-c3cccc(NC(=O)c4cn(C)c(=O)n(C)c4=O)c3C)c2Cl)cc2c1[C@H](NC[C@@H]1CCC(=O)N1)C(C)(C)C2` (single isomer, unassigned) [Compound A-124] is 1000 to 10000 nM; for `COc1nc(-c2cccc(-c3cccc(NC(=O)c4cn(C)c(=O)n(C)c4=O)c3C)c2Cl)cc2c1[C@H](NC[C@@H]1CNC(=O)C1)CC2` (single isomer, unassigned) [Compound A-138] it is not above 10 nM. Compound `COc1nc(-c2cccc(-c3cccc(NC(=O)c4cn(C)c(=O)n(C)c4=O)c3C)c2Cl)cc2c1[C@@H](N1CC3(CCC(=O)N3)C1)CC2` (single isomer, unassigned) [Compound A-139] registered a 50% effective concentration (EC50) not above 10 nM. `COc1nc(-c2cccc(-c3cccc(NC(=O)c4cn(C)c(=O)n(C)c4=O)c3F)c2F)cc2c1[C@@H](NC[C@@H]1CCC(=O)N1)CC2` [Compound A-9] yielded an EC50 of 10 to 100 nM. Consider `COc1cc(-c2cccc(-c3cccc(NC(=O)c4cn(C)c(=O)n(C)c4=O)c3Cl)c2Cl)cc2c1CC(NC[C@@H]1CCC(=O)N1)C2` (stereo partly drawn) [Compound A-48], for which the EC50 fell in the range of 100 to 1000 nM.

Consider `COc1nc(-c2cccc(-c3cccc(NC(=O)c4cn(C)c(=O)n(C)c4=O)c3Cl)c2C#N)cc2c1[C@@H](NC[C@@H]1CCC(=O)N1)CC2` [Compound A-50], for which the half-maximal effective concentration (EC50) fell in the range of 10 to 100 nM. Still for that read-out and setting: the figure for `COc1nc(-c2ccc(F)c(-c3cccc(NC(=O)c4cn(C)c(=O)n(C)c4=O)c3C)c2F)cc2c1[C@H](N1CC(O)C1)CC2` [Compound A-81] is 10 to 100 nM; for `COc1nc(-c2cccc(-c3cccc(NC(=O)c4cn(C)c(=O)n(C)c4=O)c3Cl)c2Cl)cc2c1C(N[C@H]1CCOC[C@@H]1O)CC2` (stereo partly drawn) [Compound D-8a] it is 10 to 100 nM. Still for that read-out and setting: the figure for `COc1nc(-c2cccc(-c3cccc(NC(=O)c4cn(C)c(=O)n(C)c4=O)c3C)c2Cl)cc2c1C(NCC(=O)O)CC2` [Compound D-12] is 10 to 100 nM; for `COc1nc(-c2cccc(-c3cccc(NC(=O)c4cn(C)c(=O)n(C)c4=O)c3C)c2Cl)cc2c1C(NCC(=O)N1CCCC1)CC2` [Compound D-13] it is 10 to 100 nM. For `COc1nc(-c2cccc(-c3cccc(NC(=O)c4cn(C)c(=O)n(C)c4=O)c3Cl)c2Cl)cc2c1C(N1CC3(CNC(=O)C3)C1)CC2` [Compound D-14], the concentration giving a half-maximal response (EC50) was not above 10 nM. `COc1nc(-c2cccc(-c3cccc(NC(=O)c4cn(C)c(=O)n(C)c4=O)c3C)c2Cl)cc2c1[C@@H](N(C)C[C@@H]1CCC(=O)N1)CC2` [Compound I-1] gave a 50% effective concentration (EC50) not above 10 nM.

Staying with this assay, now noted: co-culture 6 hrs at 37° C., NFAT-mediated luciferase activity.
`COc1nc(-c2ccc(F)c(-c3cccc(NC(=O)c4cn(C)c(=O)n(C)c4=O)c3C)c2F)cc2c1[C@H](N1CC(O)C1)CC2` [Compound A-82] had an EC50 of 10 to 100 nM.

The values are drawn from patent publication US12534450B2, “Methods and compositions for targeting PD-L1” (Aligos Therapeutics, Inc., priority 2021, dated 2026).
